# Legend:
# [1] = test system: pro-inflammatory factors (TNF-α, IL-1β, etc.) and inflammatory proteins (iNOS and COX-2); settings: cited from earlier work
# GABAAR receptors = settings: cited from earlier work
# primary cortical neurons = assay: Aβ1-42-induced primary cortical neuronal injury test (Luminescent Cell Viability Assay); type: cell-based, rat; settings: single agent, pre-incubation 30 min before oligomerized Aβ1-42 50 μM, 24 h; edaravone 3.7 to 100 μM, dexborneol 1.2 to 100 μM; vs DMSO group
# Experimental: A SD pregnant rat at 18 days of pregnancy was sacrificed by cervical dislocation, the uteruses of the rat were dissected, the brain of E18 fetal rat was taken out, the cerebral cortical tissue of the fetal rat was isolated into an ice-cold DMEM, the meninge and blood vessels were removed from the cortical tissue under a dissecting microscope, the cortical tissue was transferred to an ice-cold DMEM and minced (about 1 mm^3), and digested with trypsin at 37° C. for 10 min, the digestion was terminated with FBS, a Pasteur pipette was used to perform gentle pipetting and dispersing, and screening was then performed using a 200-mesh sieve. […] The cells were counted by a hemocytometer, diluted to 5×10^5 cells/ml with a complete medium, and seeded in a 96-well plate coated with PDL (100 μL/well) for culture. […]
# The medium of the in vitro matured primary neurons was replaced with a complete medium containing different concentrations (1.2, 3.7, 11.1, 33.3, 100.0 μM) of edaravone (E), dexborneol (B) or an edaravone and dexborneol composition (EB), after incubation at 37° C. for 30 min, oligomerized Aβ1-42 (final concentration of 50 μM) was added, the culture was continued for 24 h, and the neuronal viability was tested. […] LUMbackground is the background reading of the cell-free medium well into which Luminescent Cell Viability Assay kit is added. […]
structure (smiles),measurement,setting,value
"CC1(C)[C@@H]2CC[C@@]1(C)[C@@H](O)C2 [dexborneol, (+)-borneol]",pro-inflammatory factors and inflammatory proteins within the brain,[1],"reduce multiple pro-inflammatory factors (TNF-α, IL-1β, etc.) and inflammatory proteins (iNOS and COX-2) within the brain"
same,agonism of inhibitory GABAAR receptors,GABAAR receptors,can agonize inhibitory GABAAR receptors
same,"inhibiting Aβ-induced neurotoxicity, increasing the cell viability",primary cortical neurons,capable of inhibiting Aβ-induced neurotoxicity in a concentration-dependent manner

# Reference: patent US20260158002A1, “APPLICATION OF COMPOSITION CONTAINING EDARAVONE AND DEXBORNEOL IN IMPROVING OR TREATING COGNITIVE IMPAIRMENT” (NEURODAWN PHARMACEUTICAL CO., LTD., priority 2021, published 2026)
